In experiment [1] the test system is Raoultella planticola. Briefly: Antimicrobial activity against Klebsiella planticola MTCC 530 after 24 hrs by well diffusion method. Format: functional.
For experiment [2], the system named is Escherichia coli. Kind of experiment: Antimicrobial activity against Escherichia coli MTCC 739 after 24 hrs by well diffusion method. Format: functional.
The subject of experiment [3] is Pseudomonas aeruginosa. Briefly: Antimicrobial activity against Pseudomonas aeruginosa MTCC 2453 after 24 hrs by well diffusion method. The format is functional.
Experiment [4] deals with Staphylococcus aureus. Kind of experiment: Antimicrobial activity against Staphylococcus aureus MTCC 96 after 24 hrs by well diffusion method. The format is functional.
The subject of experiment [5] is Bacillus subtilis. Briefly: Antimicrobial activity against Bacillus subtilis MTCC 121 after 24 hrs by well diffusion method. The format is functional.
The test system of experiment [6] is Micrococcus luteus. Kind of experiment: Antimicrobial activity against Micrococcus luteus MTCC 2470 after 24 hrs by well diffusion method. Format: functional.
Experiment [7] relates to Candida albicans. Briefly: microbe, parasite or virus in culture. The note with it: MTCC 3017, 24 h.
Description: (§1) Antimicrobial activity against Candida albicans MTCC 3017 after 24 hrs by well diffusion method
For experiment [8], the system named is Staphylococcus aureus. Kind of experiment: Antimicrobial activity against Staphylococcus aureus MLS-16 MTCC 2940 after 24 hrs by well diffusion method. Format: functional.
Experiment [9] has as its system Staphylococcus aureus. Briefly: Bactericidal activity against Staphylococcus aureus MLS-16 MTCC 2940 after 24 hrs by agar plating method. The format is functional. Particulars: MLS-16 MTCC 2940, 24 h.
Experiment [10] relates to Pseudomonas aeruginosa. Kind of experiment: Antimicrobial activity against Pseudomonas aeruginosa MTCC 2453 assessed as inhibition of biofilm formation after 24 hrs by crystal violet staining-based assay. Format: functional, organism-based. The note with it: MTCC 2453, 24 h.
The subject of experiment [11] is Micrococcus luteus. Kind of experiment: Antimicrobial activity against Micrococcus luteus MTCC 2470 assessed as inhibition of biofilm formation after 24 hrs by crystal violet staining-based assay. The format is functional, organism-based. The note with it: MTCC 2470, 24 h.
Experiment [12] concerns Raoultella planticola. Kind of experiment: Bactericidal activity against Klebsiella planticola MTCC 530 after 24 hrs by agar plating method. The format is functional. Particulars: MTCC 530, 24 h.
The test system of experiment [13] is Escherichia coli. Kind of experiment: Bactericidal activity against Escherichia coli MTCC 739 after 24 hrs by agar plating method. The format is functional. Particulars: MTCC 739, 24 h.
For experiment [14], the system named is Micrococcus luteus. Briefly: Bactericidal activity against Micrococcus luteus MTCC 2470 after 24 hrs by agar plating method. Format: functional. The note with it: MTCC 2470, 24 h.
The subject of experiment [15] is Staphylococcus aureus. Briefly: Antimicrobial activity against Staphylococcus aureus MTCC 96 assessed as inhibition of biofilm formation after 24 hrs by crystal violet staining-based assay. Format: functional, organism-based. The note with it: MTCC 96, 24 h.
The test system of another experiment is HeLa. Kind of experiment: Cytotoxicity against human HeLa cells after 24 hrs by MTT assay. The format is functional, cell-based.
Experiment [16] concerns Candida albicans. The note with it: MTCC 3017.
Description: as §1
The test system of experiment [17] is Staphylococcus aureus. Kind of experiment: Bactericidal activity against Staphylococcus aureus MTCC 96 after 24 hrs by agar plating method. Format: functional. Particulars: MTCC 96, 24 h.
Experiment [18] deals with Raoultella planticola. Briefly: Antimicrobial activity against Klebsiella planticola MTCC 530 assessed as inhibition of biofilm formation after 24 hrs by crystal violet staining-based assay. The format is functional, organism-based. Particulars: MTCC 530, 24 h.
For the next experiment, the system named is MCF7. Briefly: Cytotoxicity against human MCF7 cells after 24 hrs by MTT assay. The format is functional, cell-based. The note with it: MCF7, 24 h.
Experiment [19] concerns Staphylococcus aureus. Briefly: Antimicrobial activity against Staphylococcus aureus MLS-16 MTCC 2940 assessed as inhibition of biofilm formation after 24 hrs by crystal violet staining-based assay. The format is functional, organism-based. The note with it: MLS-16 MTCC 2940, 24 h.
Experiment [20] relates to Bacillus subtilis. Kind of experiment: Bactericidal activity against Bacillus subtilis MTCC 121 after 24 hrs by agar plating method. Format: functional. The note with it: MTCC 121, 24 h.
The next experiment relates to DU-145. Kind of experiment: Cytotoxicity against human DU145 cells after 24 hrs by MTT assay. Particulars: DU-145, 24 h. Format: functional, cell-based.
For experiment [21], the system named is Pseudomonas aeruginosa. Kind of experiment: Bactericidal activity against Pseudomonas aeruginosa MTCC 2453 after 24 hrs by agar plating method. The format is functional. The note with it: MTCC 2453, 24 h.
In the next experiment the test system is A549. Briefly: Cytotoxicity against human A549 cells after 24 hrs by MTT assay. Format: functional, cell-based. The note with it: A549, 24 h.

Converted amounts (≈) assume the structure as drawn. The source made the active and inactive calls. The calls are words filed in the database; no cut-off is given here. A value given as a limit tells only on which side of the number the result lay.

With `Clc1ccc(COC(Cn2ccnc2)c2ccc(Cl)cc2Cl)c(Cl)c1` (stereo not given) [MICONAZOLE], the MIC result in the experiment with Raoultella planticola [1], in the experiment on Escherichia coli [2], with Pseudomonas aeruginosa [3], in the experiment on Staphylococcus aureus [4], in the experiment with Bacillus subtilis [5] and with Micrococcus luteus [6] was “inactive” each time. The MIC entry in the experiment with Staphylococcus aureus [8] was “inactive”. In the experiment on Candida albicans [7], this molecule gave an MIC of 7.8 µg/mL (≈ 18.7 µM).

For the molecule `CCOC(=O)Cn1nc(-n2cc(COc3cc(C(F)(F)F)nc(N)n3)nn2)c2ccc(C(F)(F)F)nc21`, the MBC in the experiment with Staphylococcus aureus [9] is 15.6 µg/mL (≈ 29.4 µM); against Raoultella planticola [12], 15.6 µg/mL (≈ 29.4 µM); against Escherichia coli [13] it was 31.2 µg/mL (≈ 58.7 µM); with Micrococcus luteus [14] it was 15.6 µg/mL (≈ 29.4 µM); in the experiment on Staphylococcus aureus [17], 15.6 µg/mL (≈ 29.4 µM); against Bacillus subtilis [20], 15.6 µg/mL (≈ 29.4 µM). The molecule also came in with an MBC in the experiment on Pseudomonas aeruginosa [21] of 15.6 µg/mL (≈ 29.4 µM). Moreover, the IC50 in the experiment with Pseudomonas aeruginosa [10] was 15.6 µg/mL (≈ 29.4 µM); in the experiment on Micrococcus luteus [11], 7.8 µg/mL (≈ 14.7 µM); in the experiment on Staphylococcus aureus [15], 3.9 µg/mL (≈ 7.34 µM); with HeLa it was 9.8 µM; in the experiment on Raoultella planticola [18], 3.9 µg/mL (≈ 7.34 µM); with MCF7, 12.4 µM. The results for the IC50 in the experiment with Staphylococcus aureus [19], with DU-145 and with A549 were 7.8 µg/mL (≈ 14.7 µM), 18.2 µM and 16.3 µM, respectively. Further, the MIC is 7.8 µg/mL (≈ 14.7 µM) in the experiment with Raoultella planticola [1] (MTCC 530, 24 h); 15.6 µg/mL (≈ 29.4 µM) against Escherichia coli [2] (MTCC 739, 24 h); 15.6 µg/mL (≈ 29.4 µM) in the experiment with Pseudomonas aeruginosa [3] (MTCC 2453, 24 h); 15.6 µg/mL (≈ 29.4 µM) against Staphylococcus aureus [4] (MTCC 96, 24 h); 15.6 µg/mL (≈ 29.4 µM) against Bacillus subtilis [5] (MTCC 121, 24 h); over 250 µg/mL against Micrococcus luteus [6] (MTCC 2470, 24 h). Further, in the experiment with Staphylococcus aureus [8] (MLS-16 MTCC 2940, 24 h), the MIC came to 7.8 µg/mL (≈ 14.7 µM). In addition, in the experiment on Candida albicans [16], the MIC result is “inactive”.

With `Nc1nc(OCc2cn(-c3n[nH]c4nc(C(F)(F)F)ccc34)nn2)cc(C(F)(F)F)n1`, the MBC was determined as 31.2 µg/mL (≈ 70.1 µM) with Staphylococcus aureus [9]; 31.2 µg/mL (≈ 70.1 µM) against Raoultella planticola [12]; 7.8 µg/mL (≈ 17.5 µM) in the experiment with Escherichia coli [13]; 15.6 µg/mL (≈ 35 µM) against Micrococcus luteus [14]; 31.2 µg/mL (≈ 70.1 µM) in the experiment on Staphylococcus aureus [17]; 31.2 µg/mL (≈ 70.1 µM) with Bacillus subtilis [20]. For the same molecule, the MBC in the experiment on Pseudomonas aeruginosa [21] was 15.6 µg/mL (≈ 35 µM). The IC50 is 3.9 µg/mL (≈ 8.76 µM) with Pseudomonas aeruginosa [10]; 7.8 µg/mL (≈ 17.5 µM) in the experiment with Micrococcus luteus [11]; 7.8 µg/mL (≈ 17.5 µM) in the experiment with Staphylococcus aureus [15]; over 100 µM in the experiment with HeLa; 7.8 µg/mL (≈ 17.5 µM) in the experiment with Raoultella planticola [18]; over 100 µM in the experiment on MCF7. Moreover, the IC50 is 7.8 µg/mL (≈ 17.5 µM) in the experiment on Staphylococcus aureus [19], 28.9 µM with DU-145 and 22.8 µM with A549. Besides, the MIC in the experiment with Raoultella planticola [1] (MTCC 530, 24 h) was found to be 15.6 µg/mL (≈ 35 µM); against Escherichia coli [2] (MTCC 739, 24 h), 7.8 µg/mL (≈ 17.5 µM); with Pseudomonas aeruginosa [3] (MTCC 2453, 24 h), 7.8 µg/mL (≈ 17.5 µM); with Staphylococcus aureus [4] (MTCC 96, 24 h), 15.6 µg/mL (≈ 35 µM); in the experiment on Bacillus subtilis [5] (MTCC 121, 24 h) it was 15.6 µg/mL (≈ 35 µM); against Micrococcus luteus [6] (MTCC 2470, 24 h), 7.8 µg/mL (≈ 17.5 µM). In the experiment with Staphylococcus aureus [8] (MLS-16 MTCC 2940, 24 h), this molecule had an MIC of 15.6 µg/mL (≈ 35 µM). In addition, the MIC entry in the experiment on Candida albicans [16] was “inactive”.

In the case of `CCCCCCCCCCn1nc(-n2cc(COc3cc(C(F)(F)F)nc(N)n3)nn2)c2ccc(C(F)(F)F)nc21`, the MBC is 7.8 µg/mL (≈ 13.3 µM) against Staphylococcus aureus [9]; 7.8 µg/mL (≈ 13.3 µM) with Raoultella planticola [12]; 15.6 µg/mL (≈ 26.6 µM) against Escherichia coli [13]; 15.6 µg/mL (≈ 26.6 µM) against Micrococcus luteus [14]; 15.6 µg/mL (≈ 26.6 µM) against Staphylococcus aureus [17]; 31.2 µg/mL (≈ 53.3 µM) with Bacillus subtilis [20]. The molecule further came in with an MBC in the experiment with Pseudomonas aeruginosa [21] of 15.6 µg/mL (≈ 26.6 µM). For the same molecule, the IC50 in the experiment on Pseudomonas aeruginosa [10] was 3.9 µg/mL (≈ 6.66 µM); in the experiment with Micrococcus luteus [11], 3.9 µg/mL (≈ 6.66 µM); in the experiment on Staphylococcus aureus [15], 7.8 µg/mL (≈ 13.3 µM); in the experiment with HeLa, 34.3 µM; in the experiment on Raoultella planticola [18] it was 3.9 µg/mL (≈ 6.66 µM); in the experiment on MCF7 it was 37.2 µM. In addition, the concentration for half-maximal inhibition (IC50) in the experiment with Staphylococcus aureus [19] was 3.9 µg/mL (≈ 6.66 µM); in the experiment with DU-145 it was 5.8 µM; in the experiment on A549, 4.2 µM. The MIC against Raoultella planticola [1] (MTCC 530, 24 h) came out at 7.8 µg/mL (≈ 13.3 µM); in the experiment on Escherichia coli [2] (MTCC 739, 24 h), 7.8 µg/mL (≈ 13.3 µM); against Pseudomonas aeruginosa [3] (MTCC 2453, 24 h) it was 7.8 µg/mL (≈ 13.3 µM); against Staphylococcus aureus [4] (MTCC 96, 24 h) it was 7.8 µg/mL (≈ 13.3 µM); with Bacillus subtilis [5] (MTCC 121, 24 h) it was 15.6 µg/mL (≈ 26.6 µM); with Micrococcus luteus [6] (MTCC 2470, 24 h), 15.6 µg/mL (≈ 26.6 µM). The molecule also displayed an MIC in the experiment with Staphylococcus aureus [8] (MLS-16 MTCC 2940, 24 h) of 7.8 µg/mL (≈ 13.3 µM). For the same molecule, the MIC result in the experiment with Candida albicans [16] is “inactive”.

The values are drawn from ChEMBL document CHEMBL3286384, “Synthesis, cytotoxicity, antimicrobial and anti-biofilm activities of novel pyrazolo[3,4-b]pyridine and pyrimidine functionalized 1,2,3-triazole derivatives” (Bioorg Med Chem Lett, 2014).
